From patent US8846737B2, “Compound” (Sterix Limited, priority 2009, dated 2014)

Assays:
rats = conditions: cited from earlier work
steroid sulphatase = target: T1, steroid sulphatase (Homo sapiens, UniProt P08842); conditions: compared with EMATE; cited from earlier work
T1 sequence (P08842 22-583): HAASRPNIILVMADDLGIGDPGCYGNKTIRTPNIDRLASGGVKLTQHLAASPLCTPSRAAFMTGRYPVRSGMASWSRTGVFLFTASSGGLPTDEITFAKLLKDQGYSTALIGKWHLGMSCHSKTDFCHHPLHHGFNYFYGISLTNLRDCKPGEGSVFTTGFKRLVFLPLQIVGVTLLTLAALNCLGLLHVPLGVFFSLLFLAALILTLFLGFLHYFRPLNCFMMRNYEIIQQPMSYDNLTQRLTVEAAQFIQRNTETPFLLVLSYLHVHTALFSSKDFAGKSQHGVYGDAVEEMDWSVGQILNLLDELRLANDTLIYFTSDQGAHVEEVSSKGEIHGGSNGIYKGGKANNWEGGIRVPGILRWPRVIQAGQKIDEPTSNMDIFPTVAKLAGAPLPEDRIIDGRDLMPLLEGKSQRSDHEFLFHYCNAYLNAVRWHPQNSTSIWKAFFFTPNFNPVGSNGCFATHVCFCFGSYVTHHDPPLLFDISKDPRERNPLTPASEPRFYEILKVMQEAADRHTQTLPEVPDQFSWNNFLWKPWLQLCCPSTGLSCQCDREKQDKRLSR

Aromatase = target: T2, Aromatase (Homo sapiens, UniProt P11511); test: Aromatase activity in JEG3 cells (Protocol 6); type: cell-based; conditions: intact JEG3 cells, [1β-3H]androstenedione, 30 min
T2 construct: host or cells: JEG3 choriocarcinoma cells, intact monolayers
T2 sequence (P11511 1-503): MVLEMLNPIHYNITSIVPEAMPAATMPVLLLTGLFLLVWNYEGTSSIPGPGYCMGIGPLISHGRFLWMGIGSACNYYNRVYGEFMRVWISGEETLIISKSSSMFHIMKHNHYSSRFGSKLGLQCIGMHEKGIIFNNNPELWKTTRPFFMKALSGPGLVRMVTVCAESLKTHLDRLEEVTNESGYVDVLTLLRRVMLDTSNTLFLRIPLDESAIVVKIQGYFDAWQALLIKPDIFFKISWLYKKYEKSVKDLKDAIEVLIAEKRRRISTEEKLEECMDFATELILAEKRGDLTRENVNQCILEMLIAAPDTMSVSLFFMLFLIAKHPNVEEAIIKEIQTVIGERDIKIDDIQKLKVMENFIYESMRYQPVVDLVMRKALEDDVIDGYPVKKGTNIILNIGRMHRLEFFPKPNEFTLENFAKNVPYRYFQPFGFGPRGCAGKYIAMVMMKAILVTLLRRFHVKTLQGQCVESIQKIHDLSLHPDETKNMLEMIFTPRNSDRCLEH
Protocol: Assay for Determining Aromatase Activity Using JEG3 Cells
Aromatase activity is measured in JEG3 choriocarcinoma cells, obtained from the ATCC. […] During the aromatase reaction, ^3H2O is liberated which can be quantified using a liquid scintillation spectrometer. […] The number of cell nuclei per flask is determined using a Coulter Counter after treating the cell monolayers with Zaponin.
Aromatase inhibition was measured in accordance with Protocol 6.

Steroid sulphatase (STS) = target: T3, Steroid sulphatase (STS) (Homo sapiens, UniProt P08842); test: Inhibition of steroid sulphatase activity in JEG3 cells (Protocol 1); type: cell-based; conditions: intact JEG3 cells, [6,7-3H]oestrone-3-sulphate, 3-4 hours
T3 construct: host or cells: JEG3 choriocarcinoma cells, intact monolayers
T3 sequence (P08842 22-583): T1 sequence (P08842 22-583)
Protocol: Assay for Determining STS Activity Using Cancer Cells
Inhibition of Steroid Sulphatase Activity in JEG3 Cells
Steroid sulphatase activity is measured in vitro using intact JEG3 choriocarcinoma cells.
Cells are maintained in Minimal Essential Medium (MEM) containing 20 mM HEPES, 5% foetal bovine serum, 2 mM glutamine, non-essential amino acids and 0.075% sodium bicarbonate. Up to 30 replicate 25 cm^2 tissue culture flasks are seeded with approximately 1×10^5 cells/flask using the above medium Cells are grown to 80% confluency and the medium is changed every third day.
Intact monolayers of JEG3 cells in triplicate 25 cm^2 tissue culture flasks are washed with Earle's Balanced Salt Solution (EBSS) and incubated for 3-4 hours at 37° C. with 5 pmol (7×10^5 dpm) [6, 7-3H]oestrone-3-sulphate (specific activity 60 Ci/mmol) in serum-free MEM (2.5 ml) together with oestrone-3-sulphamate (11 concentrations: 0; 1fM; 0.01 pM; 0.1 pM, 1 pM; 0.01 nM; 0.1 nM; 0.01 mM; 0.1 mM; 1 mM). After incubation each flask is cooled and the medium (1 ml) is pipetted into separate tubes containing [14C]oestrone (7×10^3 dpm) (specific activity 97 Ci/mmol). The mixture is shaken thoroughly for 30 seconds with toluene (5 ml) Experiments have shown that >90% [14C]oestrone and <0 1% [3H]oestrone-3-sulphate is removed from the aqueous phase by this treatment A portion (2 ml) of the organic phase is removed, evaporated and the 3H and 14C content of the residue determined by scintillation spectrometry The mass of oestrone-3-sulphate hydrolysed was calculated from the 3H counts obtained (corrected for the volumes of the medium and organic phase used, and for recovery of [14C] oestrone added) and the specific activity of the substrate Each batch of experiments includes incubations of microsomes prepared from a sulphatase-positive human placenta (positive control) and flasks without cells (to assess apparent non-enzymatic hydrolysis of the substrate). The number of cell nuclei per flask is determined using a Coulter Counter after treating the cell monolayers with Zaponin One flask in each batch is used to assess cell membrane status and viability using the Trypan Blue exclusion method (Phillips, H J. (1973) In: Tissue culture and applications, [eds: Kruse, D. F. & Patterson, M. K]; pp 406-408; Academic Press, New York)
Results for steroid sulphatase activity are expressed as the mean±1S.D. of the total product (oestrone+oestradiol) formed during the incubation period (3-4 hours) calculated for […] and, for values showing statistical significance, as a percentage reduction (inhibition) over incubations containing no oestrone-3-sulphamate. Unpaired Student's t-test was used to test the statistical significance of results
Sterioid sulphatase inhibition was measured in accordance with Protocol 1

E1-STS = target: T4, E1-STS (Homo sapiens, UniProt P08842); conditions: intact MCF-7 cells, at 0.1 nM; cited from earlier work
T4 construct: host or cells: intact MCF-7 cells (endogenous enzyme)
T4 sequence (P08842 22-583): T1 sequence (P08842 22-583)

| IC50 (Aromatase) [nM] | IC50 (Steroid sulphatase (STS)) [nM] | Structure (SMILES) | other results |
| --- | --- | --- | --- |
| – | – | COc1cc2c(cc1OS(N)(=O)=O)CC[C@@H]1[C@@H]2CC[C@]2(C)C(=O)CC[C@@H]12 [2-methoxyoestrone-3-O-sulphamate] | oestrogenicity (rats; rat, in vivo): devoid of oestrogenicity; potency as steroid sulphatase inhibitor (steroid sulphatase): equipotent with EMATE |
| 3.4 ± 0.2 | 43 ± 6 | N#Cc1ccc(N(Cc2ccc(OS(N)(=O)=O)cc2)n2cnnc2)cc1N1CCCCC1 [Compound 17] | – |
| 3.2 ± 0.1 | 181 ± 8 | N#Cc1ccc(N(Cc2ccc(OS(N)(=O)=O)cc2)n2cnnc2)cc1N1CCCCCC1 [Compound 19] | – |
| 89 ± 10.2 | 2800 ± 985 | CN1CCN(c2cc(N(Cc3ccc(OS(N)(=O)=O)cc3)n3cnnc3)ccc2C#N)CC1 [Compound 23] | – |
| < 0.1 | 1150 ± 50 | N#Cc1ccc(N(CCC(=O)c2ccc(OS(N)(=O)=O)cc2)n2cnnc2)cc1-c1ccccc1 [Compound 29] | – |
| 1.43 ± 0.55 | 0.15 ± 0.03 | N#Cc1ccc(N(Cc2ccc(OS(N)(=O)=O)cc2F)n2cnnc2)cc1-c1ccccc1 [Compound 31] | – |
| < 0.1 | 9.7 ± 4.2 | N#Cc1ccc(N(Cc2ccc(OS(N)(=O)=O)cc2)n2ccnc2)cc1-c1ccccc1 [Compound 32] | – |
| 0.8 ± 0.3 | 2.8 ± 0.9 | N#Cc1ccc(N(Cc2ccc(OS(N)(=O)=O)c(F)c2F)n2cnnc2)cc1-c1ccccc1 [Compound 34] | – |
| < 0.1 | 0.1 | COc1ccc(-c2cc(N(Cc3c(F)cc(OS(N)(=O)=O)cc3F)n3cnnc3)ccc2C#N)cc1 [Compound 36] | – |
| 97 ± 2.7 | 4360 ± 554 | N#Cc1ccc(N(Cc2ccc(OS(N)(=O)=O)cc2)n2cnnc2)cc1CN1CCCC1 [Compound 41] | – |
| 40.7 ± 4.5 | 292 ± 80 | COc1ccc(Cc2cc(N(Cc3ccc(OS(N)(=O)=O)cc3)n3cnnc3)ccc2C#N)cc1 [Compound 45] | – |
| 5.6 ± 0.1 | 14 ± 0.87 | N#Cc1ccc(N(Cc2c(F)cc(OS(N)(=O)=O)cc2F)n2cnnc2)cc1-c1ccc(F)cc1 [Compound 47] | – |
| 36 ± 1.7 | 198 ± 37 | N#Cc1ccc(N(Cc2ccc(OS(N)(=O)=O)cc2)n2cnnc2)cc1-c1ccncc1 [Compound 51] | – |
| 12.5 ± 2.3 | 62 ± 13 | N#Cc1ccc(N(Cc2ccc(OS(N)(=O)=O)cc2)n2cnnc2)cc1Oc1ccccc1 [Compound 57] | – |
| – | – | CC12CCC3c4ccc(OS(N)(=O)=O)cc4CCC3C1CCC2=O (centres unmarked) [EMATE, oestrone-3-sulphamate] | oral uterotrophic activity relative to estradiol (rats; rats, oral): 100 times; inhibition of E1-STS activity (E1-STS): more than 99% |
| < 0.1 | 0.12 ± 0.02 | N#Cc1ccc(N(Cc2c(F)cc(OS(N)(=O)=O)cc2F)n2cnnc2)cc1-c1ccccc1 [PMW04153, 4-(((6-Cyanobiphenyl-3-yl)(4H-1,2,4-triazol-4-yl)amino)methyl)-3,5-difluorophenyl sulfamate] | – |
